According to ChEMBL document CHEMBL5291721, “A preclinical secondary pharmacology resource illuminates target-adverse drug reaction associations of marketed drugs” (Nat Commun, 2023):

What was measured:
[1] = biological target: T1, Alpha-1A adrenergic receptor (Homo sapiens, UniProt P35348); type: functional, cell-based
T1 sequence (P35348 whole entry): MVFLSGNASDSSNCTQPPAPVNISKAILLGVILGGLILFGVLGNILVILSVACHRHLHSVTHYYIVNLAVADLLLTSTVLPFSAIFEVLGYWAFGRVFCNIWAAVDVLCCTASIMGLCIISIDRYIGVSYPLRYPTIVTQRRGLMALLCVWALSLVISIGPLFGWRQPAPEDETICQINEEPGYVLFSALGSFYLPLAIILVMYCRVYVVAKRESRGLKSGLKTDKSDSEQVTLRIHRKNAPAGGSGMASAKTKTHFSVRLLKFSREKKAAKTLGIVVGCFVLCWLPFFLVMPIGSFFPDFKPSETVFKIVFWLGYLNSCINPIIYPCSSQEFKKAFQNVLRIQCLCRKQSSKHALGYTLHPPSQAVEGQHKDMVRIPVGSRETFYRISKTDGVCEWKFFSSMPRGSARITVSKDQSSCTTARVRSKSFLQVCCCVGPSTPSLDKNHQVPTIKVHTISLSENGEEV

Progesterone receptor [2] = biological target: T2, Progesterone receptor (Homo sapiens, UniProt P06401); type: functional
T2 sequence (P06401 whole entry): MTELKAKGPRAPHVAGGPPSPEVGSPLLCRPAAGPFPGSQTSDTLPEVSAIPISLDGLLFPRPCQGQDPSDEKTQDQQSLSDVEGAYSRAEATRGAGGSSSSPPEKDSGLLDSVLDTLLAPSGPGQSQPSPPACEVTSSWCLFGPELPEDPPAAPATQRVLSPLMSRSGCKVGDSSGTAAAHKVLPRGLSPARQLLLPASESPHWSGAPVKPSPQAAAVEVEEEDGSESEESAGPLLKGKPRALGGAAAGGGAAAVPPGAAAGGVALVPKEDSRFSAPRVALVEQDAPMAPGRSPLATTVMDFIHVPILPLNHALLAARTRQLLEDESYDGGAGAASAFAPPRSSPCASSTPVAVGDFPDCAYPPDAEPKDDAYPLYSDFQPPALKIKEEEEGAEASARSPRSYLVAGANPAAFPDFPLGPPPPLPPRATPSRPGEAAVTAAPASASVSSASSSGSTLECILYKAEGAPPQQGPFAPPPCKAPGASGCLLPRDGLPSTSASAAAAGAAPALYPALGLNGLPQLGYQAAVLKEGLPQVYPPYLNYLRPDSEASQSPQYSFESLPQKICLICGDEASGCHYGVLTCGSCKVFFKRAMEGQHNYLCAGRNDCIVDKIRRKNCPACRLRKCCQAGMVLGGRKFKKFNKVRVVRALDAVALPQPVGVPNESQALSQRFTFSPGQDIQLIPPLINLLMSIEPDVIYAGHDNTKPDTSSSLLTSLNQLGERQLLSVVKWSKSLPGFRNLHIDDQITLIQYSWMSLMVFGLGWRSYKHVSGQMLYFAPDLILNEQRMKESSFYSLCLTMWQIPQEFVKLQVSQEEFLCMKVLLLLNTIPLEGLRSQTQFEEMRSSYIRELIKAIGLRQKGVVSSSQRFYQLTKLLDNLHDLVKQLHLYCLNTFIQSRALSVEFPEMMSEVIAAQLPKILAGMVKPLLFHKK

Thromboxane A2 receptor = biological target: T3, Thromboxane A2 receptor (Homo sapiens, UniProt P21731); type: functional, cell-based
T3 sequence (P21731 whole entry): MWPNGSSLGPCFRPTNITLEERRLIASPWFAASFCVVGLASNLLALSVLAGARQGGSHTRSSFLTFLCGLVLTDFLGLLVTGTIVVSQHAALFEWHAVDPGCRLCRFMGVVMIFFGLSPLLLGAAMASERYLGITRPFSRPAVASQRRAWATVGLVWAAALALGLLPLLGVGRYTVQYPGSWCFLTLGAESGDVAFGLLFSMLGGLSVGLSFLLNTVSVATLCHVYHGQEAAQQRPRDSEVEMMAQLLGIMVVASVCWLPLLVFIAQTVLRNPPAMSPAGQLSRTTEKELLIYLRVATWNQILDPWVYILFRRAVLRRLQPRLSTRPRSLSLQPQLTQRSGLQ

Mu-type opioid receptor = Mu-type opioid receptor (Homo sapiens, UniProt P35372)
Chain of Mu-type opioid receptor (P35372 whole entry): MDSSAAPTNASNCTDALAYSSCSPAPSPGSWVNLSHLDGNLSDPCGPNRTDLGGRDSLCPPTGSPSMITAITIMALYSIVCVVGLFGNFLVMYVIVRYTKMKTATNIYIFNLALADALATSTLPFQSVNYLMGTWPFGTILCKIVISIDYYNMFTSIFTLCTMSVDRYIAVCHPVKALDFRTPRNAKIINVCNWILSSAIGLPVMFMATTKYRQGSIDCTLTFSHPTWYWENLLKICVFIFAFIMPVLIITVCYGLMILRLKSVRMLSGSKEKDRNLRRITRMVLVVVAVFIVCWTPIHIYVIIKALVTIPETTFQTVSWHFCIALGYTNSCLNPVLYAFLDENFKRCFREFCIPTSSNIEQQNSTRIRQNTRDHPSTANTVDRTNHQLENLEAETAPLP

Progesterone receptor [3] = biological target: T2, Progesterone receptor
[4] = biological target: cGMP-inhibited 3',5'-cyclic phosphodiesterase 3A (Homo sapiens, UniProt Q14432); type: functional
Chain of cGMP-inhibited 3',5'-cyclic phosphodiesterase 3A (Q14432 whole entry): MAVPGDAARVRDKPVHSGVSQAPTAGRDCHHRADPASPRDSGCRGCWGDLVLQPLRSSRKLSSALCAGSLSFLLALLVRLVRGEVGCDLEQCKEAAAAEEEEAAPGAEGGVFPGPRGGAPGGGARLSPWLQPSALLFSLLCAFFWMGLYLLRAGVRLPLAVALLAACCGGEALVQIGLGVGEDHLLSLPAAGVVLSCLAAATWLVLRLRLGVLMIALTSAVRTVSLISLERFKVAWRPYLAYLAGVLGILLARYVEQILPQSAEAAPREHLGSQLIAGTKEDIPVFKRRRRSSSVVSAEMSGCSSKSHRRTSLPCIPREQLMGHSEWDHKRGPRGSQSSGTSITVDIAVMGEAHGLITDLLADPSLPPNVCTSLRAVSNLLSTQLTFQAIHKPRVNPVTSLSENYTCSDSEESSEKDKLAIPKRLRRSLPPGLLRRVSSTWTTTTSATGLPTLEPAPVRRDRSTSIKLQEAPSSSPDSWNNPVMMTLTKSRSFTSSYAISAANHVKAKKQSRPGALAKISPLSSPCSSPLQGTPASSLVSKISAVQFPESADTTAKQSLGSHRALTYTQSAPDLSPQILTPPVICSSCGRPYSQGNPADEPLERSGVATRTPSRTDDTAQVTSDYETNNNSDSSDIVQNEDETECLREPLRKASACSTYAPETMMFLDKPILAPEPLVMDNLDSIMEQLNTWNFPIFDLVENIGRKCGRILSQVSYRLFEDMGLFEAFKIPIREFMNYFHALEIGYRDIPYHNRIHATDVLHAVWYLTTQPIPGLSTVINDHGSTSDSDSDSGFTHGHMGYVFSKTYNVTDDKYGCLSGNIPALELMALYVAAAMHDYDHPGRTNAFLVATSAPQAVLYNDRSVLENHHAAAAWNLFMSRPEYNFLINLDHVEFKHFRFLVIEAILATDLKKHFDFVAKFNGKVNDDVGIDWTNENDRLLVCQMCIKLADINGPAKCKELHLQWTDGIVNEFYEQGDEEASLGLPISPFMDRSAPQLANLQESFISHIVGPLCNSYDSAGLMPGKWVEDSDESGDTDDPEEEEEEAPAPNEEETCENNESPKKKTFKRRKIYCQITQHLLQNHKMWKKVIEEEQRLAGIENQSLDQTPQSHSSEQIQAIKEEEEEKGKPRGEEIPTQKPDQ

[5] = biological target: Prostaglandin G/H synthase 1 (Homo sapiens, UniProt P23219); type: functional
Chain of Prostaglandin G/H synthase 1 (P23219 whole entry): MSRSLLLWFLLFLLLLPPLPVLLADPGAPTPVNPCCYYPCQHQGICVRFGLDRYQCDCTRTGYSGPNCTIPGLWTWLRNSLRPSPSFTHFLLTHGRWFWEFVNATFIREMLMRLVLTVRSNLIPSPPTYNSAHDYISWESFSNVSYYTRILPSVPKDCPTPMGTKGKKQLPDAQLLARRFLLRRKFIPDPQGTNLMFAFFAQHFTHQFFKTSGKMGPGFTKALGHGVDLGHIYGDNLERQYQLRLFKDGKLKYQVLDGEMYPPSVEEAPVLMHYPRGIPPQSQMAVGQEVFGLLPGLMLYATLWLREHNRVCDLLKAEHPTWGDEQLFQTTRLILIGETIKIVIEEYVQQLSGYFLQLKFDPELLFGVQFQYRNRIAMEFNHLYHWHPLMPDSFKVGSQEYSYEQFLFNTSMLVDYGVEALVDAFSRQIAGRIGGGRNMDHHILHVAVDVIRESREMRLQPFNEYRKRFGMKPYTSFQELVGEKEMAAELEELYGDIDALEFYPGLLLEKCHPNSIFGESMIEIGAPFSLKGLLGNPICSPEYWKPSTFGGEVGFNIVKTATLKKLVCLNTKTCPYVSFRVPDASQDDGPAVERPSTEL

[6] = biological target: Gamma-aminobutyric acid receptor subunit alpha-1/alpha-2/beta-2/gamma-2 (Homo sapiens, UniProt P14867+P18507+P47869+P47870); type: protein-complex assay
Chain of Gamma-aminobutyric acid receptor subunit alpha-1/alpha-2/beta-2/gamma-2 (P14867 whole entry): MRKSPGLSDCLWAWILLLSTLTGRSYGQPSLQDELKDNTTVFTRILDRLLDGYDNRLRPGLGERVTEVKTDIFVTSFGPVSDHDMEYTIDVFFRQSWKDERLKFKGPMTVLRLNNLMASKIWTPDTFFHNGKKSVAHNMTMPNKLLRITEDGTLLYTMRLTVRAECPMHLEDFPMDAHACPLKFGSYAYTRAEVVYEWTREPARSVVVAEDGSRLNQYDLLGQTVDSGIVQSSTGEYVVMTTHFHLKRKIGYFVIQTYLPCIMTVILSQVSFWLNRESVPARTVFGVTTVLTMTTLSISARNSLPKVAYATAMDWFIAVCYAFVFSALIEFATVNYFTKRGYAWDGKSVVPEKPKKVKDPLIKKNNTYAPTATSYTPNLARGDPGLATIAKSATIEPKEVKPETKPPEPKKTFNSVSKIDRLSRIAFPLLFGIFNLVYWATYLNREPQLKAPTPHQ
Chain of Gamma-aminobutyric acid receptor subunit alpha-1/alpha-2/beta-2/gamma-2 (P47870 whole entry): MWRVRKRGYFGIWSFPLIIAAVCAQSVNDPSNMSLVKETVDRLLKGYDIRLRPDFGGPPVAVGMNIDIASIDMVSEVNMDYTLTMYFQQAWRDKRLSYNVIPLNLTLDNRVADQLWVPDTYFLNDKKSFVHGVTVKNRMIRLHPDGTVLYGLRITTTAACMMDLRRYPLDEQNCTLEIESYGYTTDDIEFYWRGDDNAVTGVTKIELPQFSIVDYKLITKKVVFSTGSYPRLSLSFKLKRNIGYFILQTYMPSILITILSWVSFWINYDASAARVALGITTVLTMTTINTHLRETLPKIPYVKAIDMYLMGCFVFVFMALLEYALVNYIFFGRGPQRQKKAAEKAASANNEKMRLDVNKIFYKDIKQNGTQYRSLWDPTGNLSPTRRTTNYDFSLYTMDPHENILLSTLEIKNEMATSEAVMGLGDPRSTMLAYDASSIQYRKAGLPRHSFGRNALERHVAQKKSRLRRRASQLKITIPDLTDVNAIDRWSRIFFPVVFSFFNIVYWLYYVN
Chain of Gamma-aminobutyric acid receptor subunit alpha-1/alpha-2/beta-2/gamma-2 (P18507 whole entry): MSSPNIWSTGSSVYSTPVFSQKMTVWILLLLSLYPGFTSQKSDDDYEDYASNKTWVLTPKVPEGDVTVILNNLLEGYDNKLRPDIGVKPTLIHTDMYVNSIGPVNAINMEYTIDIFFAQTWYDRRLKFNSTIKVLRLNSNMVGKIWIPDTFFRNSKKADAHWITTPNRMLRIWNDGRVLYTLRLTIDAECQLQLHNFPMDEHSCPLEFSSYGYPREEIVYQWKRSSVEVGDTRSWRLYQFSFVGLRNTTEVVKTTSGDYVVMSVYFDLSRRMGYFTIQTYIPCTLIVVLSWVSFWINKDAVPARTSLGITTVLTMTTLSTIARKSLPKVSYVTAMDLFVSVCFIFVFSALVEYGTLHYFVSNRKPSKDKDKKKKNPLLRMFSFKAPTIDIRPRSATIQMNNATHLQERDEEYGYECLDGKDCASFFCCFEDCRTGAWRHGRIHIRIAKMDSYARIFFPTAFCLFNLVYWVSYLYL
Chain of Gamma-aminobutyric acid receptor subunit alpha-1/alpha-2/beta-2/gamma-2 (P47869 whole entry): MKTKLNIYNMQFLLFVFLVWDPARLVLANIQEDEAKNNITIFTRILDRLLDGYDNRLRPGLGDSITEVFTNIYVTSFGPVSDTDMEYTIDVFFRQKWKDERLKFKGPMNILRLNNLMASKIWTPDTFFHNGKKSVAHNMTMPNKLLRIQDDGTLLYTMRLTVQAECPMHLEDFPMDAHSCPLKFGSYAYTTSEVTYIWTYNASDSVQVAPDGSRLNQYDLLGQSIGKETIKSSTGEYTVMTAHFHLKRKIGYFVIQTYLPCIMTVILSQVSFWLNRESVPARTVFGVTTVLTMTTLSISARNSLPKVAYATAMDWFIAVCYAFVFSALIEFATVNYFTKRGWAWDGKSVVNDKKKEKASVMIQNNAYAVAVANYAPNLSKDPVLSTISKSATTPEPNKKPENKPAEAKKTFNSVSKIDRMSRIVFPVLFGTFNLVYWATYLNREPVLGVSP

[7] = biological target: T4, Muscarinic acetylcholine receptor M2 (Homo sapiens, UniProt P08172); type: functional, cell-based
T4 sequence (P08172 whole entry): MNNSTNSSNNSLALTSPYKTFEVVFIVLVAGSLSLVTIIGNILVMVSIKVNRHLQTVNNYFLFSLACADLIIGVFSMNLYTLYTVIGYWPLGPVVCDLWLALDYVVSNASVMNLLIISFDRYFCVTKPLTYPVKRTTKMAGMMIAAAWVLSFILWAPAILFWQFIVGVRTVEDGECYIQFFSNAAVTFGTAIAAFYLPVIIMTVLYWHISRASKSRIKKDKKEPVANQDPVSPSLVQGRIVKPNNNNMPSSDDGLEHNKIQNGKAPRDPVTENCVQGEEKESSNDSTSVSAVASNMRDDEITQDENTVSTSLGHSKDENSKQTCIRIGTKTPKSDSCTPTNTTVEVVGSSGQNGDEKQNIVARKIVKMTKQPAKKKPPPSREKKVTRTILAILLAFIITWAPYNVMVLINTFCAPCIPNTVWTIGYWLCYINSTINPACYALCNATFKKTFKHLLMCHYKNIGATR
Also: assay procedure not described here.

Row | Compound | AC50 [1] | AC50 (Progesterone receptor [2]) | AC50 (Thromboxane A2 receptor) | AC50 (Mu-type opioid receptor) | AC50 (Progesterone receptor [3]) | AC50 [4] | AC50 [5] | AC50 [6] | AC50 [7]
1 | Nc1nc(N)c2nc(-c3ccccc3)c(N)nc2n1 | > 30 µM | > 30 µM | > 30 µM | 17 µM | > 30 µM | > 30 µM | > 30 µM | > 30 µM | > 30 µM
2 | Oc1ncnc2[nH]ncc12 [ALLOPURINOL] | > 30 µM |  | > 30 µM | > 30 µM | > 30 µM | > 30 µM | > 30 µM | > 30 µM | > 10 µM
3 | CCO/N=C(\C(=O)N[C@@H]1C(=O)N2C(C(=O)[O-])=C(Sc3nc(-c4cc[n+](C)cc4)cs3)CS[C@H]12)c1nsc(N)n1 [CEFTAROLINE] |  |  | > 30 µM |  | > 30 µM | > 30 µM | > 30 µM | > 30 µM | 
4 | Cc1cc(O)cc(C)c1Cl [CHLOROXYLENOL] |  |  | > 30 µM |  | > 30 µM | > 30 µM | > 30 µM | > 30 µM | 
5 | CN(C)CCCN1c2ccccc2CCc2ccc(Cl)cc21 [CLOMIPRAMINE] | 1.4 µM |  |  | > 10 µM |  |  |  | > 30 µM | > 10 µM
6 | CN(CCOc1ccc(NS(C)(=O)=O)cc1)CCc1ccc(NS(C)(=O)=O)cc1 [DOFETILIDE] | > 30 µM |  | > 30 µM | > 30 µM | > 30 µM | > 30 µM | > 30 µM | > 30 µM | > 30 µM
7 | COc1cc2c(cc1OC)C(=O)C(CC1CCN(Cc3ccccc3)CC1)C2 (stereo not given) [DONEPEZIL] |  |  | > 30 µM | > 30 µM | > 30 µM | > 30 µM | > 30 µM | > 30 µM | 
8 | CCOC(=O)c1ccc(O)cc1 [ETHYLPARABEN] |  |  | > 30 µM |  | > 30 µM | > 30 µM | > 30 µM | > 30 µM | 
9 | O=C1[C@H](CC[C@H](O)c2ccc(F)cc2)[C@@H](c2ccc(O)cc2)N1c1ccc(F)cc1 [EZETIMIBE] |  |  | > 30 µM |  | 24.6 µM | > 30 µM | 6.72 µM | > 10 µM | 
10 | O=C(COc1ccc(Cl)cc1)N1CCN(Cc2ccc3c(c2)OCO3)CC1 [FIPEXIDE] |  |  | > 30 µM |  | > 30 µM | > 30 µM | > 30 µM | > 30 µM | 
11 | Cc1c(-c2ccccc2)oc2c(C(=O)OCCN3CCCCC3)cccc2c1=O [FLAVOXATE] |  |  | > 30 µM |  | > 30 µM | > 30 µM | > 30 µM | > 30 µM | 
12 | CCC(=O)c1c(O)cc(O)cc1O [FLOPROPIONE] |  |  | > 30 µM |  | > 30 µM | > 30 µM | > 30 µM | > 30 µM | 
13 | CC1(C)O[C@@H]2C[C@H]3[C@@H]4C[C@H](F)C5=CC(=O)CC[C@]5(C)[C@H]4[C@@H](O)C[C@]3(C)[C@]2(C(=O)CO)O1 [FLURANDRENOLIDE] |  |  | > 30 µM |  | 0.0666 µM | > 30 µM | > 30 µM | > 30 µM | 
14 | CC(C)C(=O)Nc1ccc([N+](=O)[O-])c(C(F)(F)F)c1 [FLUTAMIDE] | > 30 µM | > 10 µM | > 30 µM | > 30 µM | > 30 µM | > 30 µM | > 30 µM | > 10 µM | > 10 µM
15 | C#C[C@]1(O)CC[C@H]2[C@@H]3CCC4=CC(=O)CC[C@@H]4[C@H]3CC[C@@]21CC [LEVONORGESTREL] |  |  | > 30 µM |  |  | > 30 µM | > 30 µM | > 30 µM | 
16 | OC[C@@H](O)[C@@H](O)[C@H](O)[C@H](O)CO [MANNITOL] |  |  | > 30 µM |  | > 30 µM | > 30 µM | > 30 µM | > 30 µM | 
17 | Sc1ncnc2nc[nH]c12 [MERCAPTOPURINE ANHYDROUS] |  |  | > 30 µM |  | > 30 µM | > 30 µM | 14.6 µM | > 30 µM | 
18 | C[N+]1(C)[C@@H]2C[C@@H](OC(=O)[C@H](CO)c3ccccc3)C[C@H]1[C@@H]1O[C@@H]12 [METHSCOPOLAMINE] |  |  | > 30 µM |  | > 30 µM | > 30 µM | > 30 µM | > 30 µM | 
19 | CC(=O)Oc1c(C)cc(OCC(O)CNC(C)C)c(C)c1C (stereo not given) [METIPRANOLOL] |  |  | > 30 µM |  | > 30 µM | > 30 µM | > 30 µM | > 30 µM | 
20 | O=C1CC[C@@]2(O)[C@H]3Cc4ccc(O)c5c4[C@@]2(CCN3CC2CC2)[C@H]1O5 [NALTREXONE] |  |  | > 30 µM |  | > 30 µM | > 30 µM | > 30 µM | > 30 µM | 
21 | CC(N/C(=N\C#N)Nc1ccncc1)C(C)(C)C (stereo not given) [PINACIDIL ANHYDROUS] |  |  | > 30 µM |  | > 30 µM | > 30 µM | > 30 µM | > 30 µM | 
22 | CC(C(=O)O)c1ccc(N2CC=CC2)c(Cl)c1 (stereo not given) [PIRPROFEN] | > 30 µM |  | > 30 µM | > 30 µM | > 30 µM | > 30 µM | 0.0325 µM | > 30 µM | > 10 µM
23 | CC(O)CO (stereo not given) [PROPYLENE GLYCOL] |  |  | > 30 µM |  | > 30 µM | > 30 µM | > 30 µM | > 30 µM | 
24 | NC(=O)c1cnccn1 [PYRAZINAMIDE] | 28 µM | > 30 µM | > 30 µM | > 30 µM | > 30 µM | > 30 µM | > 30 µM | > 30 µM | > 30 µM
25 | CN(C)C(=O)Oc1ccc[n+](C)c1 [PYRIDOSTIGMINE] |  |  | > 30 µM |  | > 30 µM | > 30 µM | > 30 µM | > 30 µM | 
26 | CC(C)OC(=O)[C@H](C)N[P@](=O)(OC[C@H]1O[C@@H](n2ccc(=O)[nH]c2=O)[C@](C)(F)[C@@H]1O)Oc1ccccc1 [SOFOSBUVIR] |  |  | > 30 µM |  | > 30 µM | > 30 µM | > 30 µM | > 30 µM | 
27 | CCOC(=O)N[C@@H]1CC[C@@H]2[C@@H](C1)C[C@H]1C(=O)O[C@H](C)[C@H]1[C@H]2/C=C/c1ccc(-c2cccc(F)c2)cn1 [VORAPAXAR] |  |  | > 30 µM |  | > 30 µM | > 30 µM | > 30 µM | > 30 µM | 
